Each block holds one compound with its values, some of them ahead of it. No end group written: not given here.
What was measured:
[1] = Rectal circulation with fatty acids as promoters (Example 15, Example 1 repeated)
Experimental: Absorption effects under conditions with various tonicities were examined.
The experiment was conducted in the following manner.
(The units in the Table are percents.)

[2] = Penicillin suppositories, concentration in plasma (Example 34); type: in vivo, S.D. male rats; details: Four fold tonicity suppository with 3.6% NaCl and 5% sodium adipate, intrarectal
Experimental: The dispersion was filled in a silicone tube (inner diameter 2.5 mm) to produce a rod-like suppository of 50 mg as a control suppository.
These suppositories were intrarectally administered to S.D. male rats (weighing about 250 g) and the concentration of Carbenicillin in blood was measured.
The concentration of Carbenicillin in blood was determined on sampled plasma by the use of Sarcina luteus ATCC 9341 in accordance with the conventional method.
The same experiment was effected on Dicloxacillin.Na.

[3] = rat, in vivo
Experimental: (§1) The experiment was conducted in the following manner. Sprague Dawley rats (male), weighing 200 to 300 g, were narcotized (after fast for 20 hours) with pentobarbital (50 mg/kg) and thereafter subjected to hypoabdominal incision for a first cannulation at a position about 1.5 cm from anus and also another cannulation at a position 5 cm above the first cannulation. Subsequently, the rectum was internally washed with about 50 ml of isotonic sodium chloride solution kept at 38° C., and samples each of 10 ml were circulated through rectum for 5 minutes (2 ml/minute) to make the concentration in the system constant. Then, 5 ml of each sample was circulated at a flow rate of 2 ml/minute, and samples each of 0.05 ml were collected at intervals of 10 minutes from 0 minute. Each sample was diluted to 5 ml with distilled water and the quantity of medicine disappeared by absorption was determined by UV spectrophotometer.
Quantities of 0.5 W/W % Cefmetazole.Na disappeared by absorption under isotonic and three-fold tonic conditions were determined, respectively, using sodium malate, sodium pyruvate, sodium phosphenolpyruvate, sodium β-hydroxybutyrate, sodium β-hydroxy glutarate, and sodium 2-phospho-D-glycerate.

[4] = Cephalothin concentration in blood after injection through anus (Example 6); type: in vivo, rat; details: with 6% sodium chloride and 1.0% disodium EDTA mono-ethylate vs 2% Cephalothin.Na control
Experimental: Using 2% solution of Cephalothin.Na (in 0.1M Tris-HCl buffer, pH 8.0) as Control, an injection agent was prepared by adding 6% sodium chloride and 1.0% disodium EDTA mono-ethylate to said solution.

[5] = Rectal circulation: Cephalothin disappeared by absorption (Examples 10-14, 16-18); details: rat, in vivo
Experimental: The experiments were conducted similarly as in Example 1. […] Each sample was diluted and the quantity of Cephalothin disappeared was determined by UV-spectrophotometer of high-speed liquid chromatography.

[6] = rabbit, in vivo, 250 mg/kg
[7] = rat, in vivo; remark: listed apart in the source
Experimental: as §1

[8] = Calcium concentration after intrarectal calcitonin preparation, relative effect (Example 8); type: in vivo, SD rats; details: after one hour, CVP and CT set at standard value of 1
[9] = Table 9, fatty acid 0.1 W/V %, Example 1 repeated, X 1
[10] = Table 9, fatty acid 0.1 W/V %, Example 1 repeated, X 4

Compound: CO[C@@]1(NC(=O)CSCC#N)C(=O)N2C(C(=O)O)=C(CSc3nnnn3C)CS[C@@H]21 [Cefmetazole.Na]
- quantity of Cefmetazole.Na disappeared by absorption [3]: practically negligible

Compound: Cc1onc(-c2c(Cl)cccc2Cl)c1C(=O)N[C@@H]1C(=O)N2[C@@H]1SC(C)(C)[C@@H]2C(=O)O [Dicloxacillin.Na]
- Concentration in plasma 5 min. [2]: 4500 ng/mL
- Concentration in plasma 10 min. [2]: 15400 ng/mL
- Concentration in plasma 20 min. [2]: 10500 ng/mL
- Concentration in plasma 30 min. [2]: 7500 ng/mL
- Concentration in plasma 60 min. [2]: 4600 ng/mL
- Concentration in plasma 90 min. [2]: 2900 ng/mL
- Concentration in plasma 120 min. [2]: 900 ng/mL

Compound: CCCCCCCCCC(=O)[O-].[Na+] [Sodium caprate, sodium caprate]
- medicine disappeared by absorption, Osmotic pressure X 1 [1, 9]: 5.2 percents
- medicine disappeared by absorption, Osmotic pressure X 4 [1, 10]: 8.6 percents

Compound: CCCCCC(=O)[O-].[Na+] [Sodium caproate, sodium caproate]
- medicine disappeared by absorption, Osmotic pressure X 1 [1, 9]: 10.4 percents
- medicine disappeared by absorption, Osmotic pressure X 2 ([1]; Table 9, fatty acid 0.1 W/V %, Example 1 repeated, X 2): 14.7 percents
- medicine disappeared by absorption, Osmotic pressure X 4 [1, 10]: 17.2 percents

Compound: CCCCCCCCCCCC(=O)[O-].[Na+] [Sodium laurate, sodium laurate]
- medicine disappeared by absorption, Osmotic pressure X 1 [1, 9]: 3.9 percents
- medicine disappeared by absorption, Osmotic pressure X 4 [1, 10]: 6.5 percents

Compound: Tuberactinomycin
- absorptions through rectum [7]: increased by the presence of EDTA.2Na and sodium chloride

Compound: calcitonin (CGNLSTCMLGTYTQDFNKFHTFPQTAIGVGAP; ends and bridges not checked; cysteine pairing not given here; UniProt P01258 85-116, looked up) [CT]
- relative effect on calcium concentration, Isotonic ([8]; glucose 0.25M): 1
- relative effect on calcium concentration, 6-fold tonic ([8]; glucose 1.5M): 1.67
- relative effect on calcium concentration, 3-fold tonic ([8]; glucose […]): 1.05

The remaining lines, values ahead:

- medicine disappeared by absorption, Osmotic pressure X 1 ([1]; rat, in vivo): 9.9 percents
- medicine disappeared by absorption, Osmotic pressure X 2 ([1]; rat, in vivo): 17.1 percents
- medicine disappeared by absorption, Osmotic pressure X 4 ([1]; rat, in vivo): 21.0 percents
Compound: CCCC(=O)O [Butyric acid, butyric acid]

- Concentration in plasma 5 min. [2]: 5000 ng/mL
- Concentration in plasma 10 min. [2]: 14700 ng/mL
- Concentration in plasma 20 min. [2]: 11500 ng/mL
- Concentration in plasma 30 min. [2]: 8900 ng/mL
- Concentration in plasma 60 min. [2]: 5100 ng/mL
- Concentration in plasma 90 min. [2]: 3100 ng/mL
- Concentration in plasma 120 min. [2]: 1600 ng/mL
Compound: CC1(C)S[C@@H]2[C@H](NC(=O)C(C(=O)O)c3ccccc3)C(=O)N2[C@H]1C(=O)O (stereo partly shown) [Carbenicillin.Na]

- concentrations in blood [4]: significantly increased
- Cephalothin disappeared by absorption, Osmotic pressure (%) X 1 [5]: 1.2%
- Cephalothin disappeared by absorption, Osmotic pressure (%) X 2 [5]: 1.6%
- Cephalothin disappeared by absorption, Osmotic pressure (%) X 4 [5]: 3.1%
- Cephalothin disappeared by absorption, Osmotic pressure X 1 [5]: 1.2 percents
- Cephalothin disappeared by absorption, Osmotic pressure X 2 [5]: 1.6 percents
- Cephalothin disappeared by absorption, Osmotic pressure X 4 [5]: 3.1 percents
Compound: CC(=O)OCC1=C(C(=O)O)N2C(=O)[C@@H](NC(=O)Cc3cccs3)[C@H]2SC1 [Cephalothin.Na, reference compound]

- medicine disappeared by absorption, Osmotic pressure X 1 [1, 9]: 5.8 percents
- medicine disappeared by absorption, Osmotic pressure X 4 [1, 10]: 13.0 percents
Compound: CCCCCCCC(=O)[O-].[Na+] [Sodium caprylate, sodium caprylate]

- Excreted amount in urine (0-6 hr, %) [6]: 1.0%
Compound: Colistin methane sulfonate sodium [Colistin methanesulfonate sodium]

- Excreted amount in urine (0-6 hr, %) [6]: 0.8%
Compound: Polymyxin B
